The text below walks through data of ChEMBL document CHEMBL1137583 (Bioorg Med Chem Lett, 2007).

The target in data set [1] is Melanin-concentrating hormone receptor 1 (Homo sapiens, UniProt Q99705). The data set is described as follows: Inhibition of 125I-MCH binding to human MCH-R1 expressed in CHO cell membranes.
A further data set deals with Mus musculus. Briefly: Inhibition of ex vivo MCH-R1 binding following 30 mg/kg peroral dose in mice after 6hr. Format: functional. The settings on record: route oral.
The nature of data set [2]: AUC (0-6hr) in rats following 10 mg/kg peroral dose. The settings on record: rat, plasma, po. The class given is ADME, organism-based. On the set-up: time < 6 hr, dose 10 mg/kg, route oral.

Melanin-concentrating hormone receptor 1, sequence (Q99705 whole entry): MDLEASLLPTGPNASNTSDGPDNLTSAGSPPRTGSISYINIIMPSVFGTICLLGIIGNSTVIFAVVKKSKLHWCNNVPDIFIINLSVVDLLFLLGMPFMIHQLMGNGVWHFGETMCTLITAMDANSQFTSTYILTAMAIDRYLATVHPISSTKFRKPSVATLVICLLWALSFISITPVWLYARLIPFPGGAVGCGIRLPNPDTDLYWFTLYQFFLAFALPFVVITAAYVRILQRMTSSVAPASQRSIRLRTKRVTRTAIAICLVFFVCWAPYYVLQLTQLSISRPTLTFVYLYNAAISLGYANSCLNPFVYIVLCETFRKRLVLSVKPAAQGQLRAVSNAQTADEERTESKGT

Turning to `CN1CCN(CCCN(C(=O)Nc2ccc(F)c(Cl)c2)C2CCc3cc(C#N)ccc3C2)CC1` (centres undefined), the affinity in data set [1] corresponds to a Ki of 340 nM.

`CN1CCN(CCCN(C(=O)Nc2ccc(F)c(Cl)c2)[C@@H]2CC[C@]3(c4cccc(C#N)c4)C[C@@H]3C2)CC1` had an inhibition constant Ki in data set [1] of 4 nM. This Ki is about 85-fold lower than that of the molecule before.

In data set [1], `CN1CCN(CCCN(C(=O)Nc2ccc(F)c(Cl)c2)C2CCc3ccc(S(=O)(=O)N(C)C)cc3C2)CC1` (centres undefined) showed a Ki of 3000 nM. This Ki is about 750-fold higher than that of the molecule before.

In turn, `CN1CCN(CCCN(C(=O)Nc2ccc(F)c(Cl)c2)C2CCc3ccc(S(C)(=O)=O)cc3C2)CC1` (centres undefined) registered a Ki in data set [1] of 1300 nM.

For the molecule `COc1ccc2c(c1)CCC(N(CCCN1CCN(C)CC1)C(=O)Nc1ccc(F)c(Cl)c1)C2` (centres undefined), the Ki in data set [1] was 190 nM.

Take `CN1CCN(CCCN(C(=O)Nc2ccc(F)c(Cl)c2)C2CCc3ccccc3C2)CC1` (centres undefined): the Ki in data set [1] is 380 nM.

Consider `CC(=O)Nc1ccc2c(c1)CC(N(CCCN1CCN(C)CC1)C(=O)Nc1ccc(F)c(Cl)c1)CC2` (centres undefined), for which 30 mg/kg produced 23% inhibition in vivo in the data set on Mus musculus. This molecule also came in with an area under the curve AUC(0-t) at 6 h in data set [2] of 195 ng·h/mL.

In the case of `CNS(=O)(=O)c1ccc2c(c1)CC(N(CCCN1CCN(C)CC1)C(=O)Nc1ccc(F)c(Cl)c1)CC2` (centres undefined), in data set [1], the Ki was 3000 nM. This counts as single-digit micromolar.

The molecule `CN1CCN(CCCN(C(=O)Nc2ccc(F)c(Cl)c2)C2CCc3ccc(C#N)cc3C2)CC1` (centres undefined) gave an inhibitory constant (Ki) in data set [1] of 8.5 nM. Besides, 30 mg/kg produced 84% inhibition in vivo in the data set with Mus musculus. Also, in data set [2], the area under the curve AUC(0-t) at 6 h is 642 ng·h/mL.

In data set [1], `CCNC(=O)Nc1ccc2c(c1)CC(N(CCCN1CCN(C)CC1)C(=O)Nc1ccc(F)c(Cl)c1)CC2` (centres undefined) gave an inhibitory constant (Ki) of 160 nM. This counts as sub-micromolar.

In data set [1], `CN1CCN(CCCN(C(=O)Nc2ccc(F)c(Cl)c2)C2CCc3ccc(N)cc3C2)CC1` (centres undefined) displayed an inhibition constant Ki of 260 nM.

By Ki is commonly meant a measure of affinity in units of concentration, obtained from inhibition or displacement. As usually defined, the inhibition in vivo is the drop in the measured response relative to a control, in per cent. Low values mean a weak effect, high ones a strong effect. What is called AUC(0-t) is exposure summed from dosing to a finite time, without extrapolation to infinity. A low value points to less exposure.
